Results as given in patent US12459951B2, “Compounds that interact with RAS superfamily proteins for treatment of cancers, inflammatory diseases, rasopathies, and fibrotic disease” (SHY Therapeutics, LLC, priority 2022, dated 2025).

How the values were obtained:
[1] = tested on: Smad2/Smad3 phosphorylation; assay: Phospho-Smad2/3 Inhibition Assay (western blot), Panc-1; assay type: cell-based, human; conditions: at 10 μM, Panc-1 pancreatic cancer cell line; starred symbols = activation
Outline: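 Western blotting of lysates (15-50 μg protein) read phosphorylation of Smad2 Ser465/467 and Smad3 Ser423/425. Before lysis, Panc-1 cells got 1 h of 10 ng/ml TGF-b1 following 3 h compound exposure at 37° C (10 μM final, or serial dilutions for IC50, 0.3% DMSO) after overnight 0.5% FBS starvation.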

[2] = tested on: MiaPaca-2 (expressing KRAS G12C mutant); assay: Proliferation Assay (Cell Viability Assay); assay type: cell-based; conditions: Homo sapiens, MIA PaCa-2; read-out: Proliferation in MiaPaca-2: IC50
Outline: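 After 2–4 days' exposure at 37 °C, 5% CO2 to a single 10 μM final concentration or a dilution series (IC50), percent proliferation inhibition was derived from CellTiter 96 Aqueous One viability readings. The medium contained 0.3% DMSO and 10% FBS. KRAS G12C MiaPaca-2 cells were plated at 2000–5000/well the day before.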

| SMILES | % inh of Smad2/3 phosphorylation in Panc-1 [1] | IC50 [2] [µM] |
| --- | --- | --- |
| Cc1c(-c2ccn(C)n2)cn2nc(-c3nccn3C)nc(Nc3cc(OC4CC4)ccn3)c12 [Compound 126, N-(4-Cyclopropoxypyridin-2-yl)-5-methyl-2-(1-methyl-1H-imidazol-2-yl)-6-(1-methyl-1H-pyrazol-3-yl)pyrrolo[2,1-f][1,2,4]triazin-4-amine] | A* (A* = 1-25% activation) | < 0.15 |
| Cc1c(-c2ccn(C)n2)cn2nc(-c3nccn3C)nc(Nc3cc(OC(F)(F)F)ccn3)c12 [Compound 127, 5-Methyl-2-(1-methyl-1H-imidazol-2-yl)-6-(1-methyl-1H-pyrazol-3-yl)-N-(4-(trifluoromethoxy)pyridin-2-yl)pyrrolo[2,1-f][1,2,4]triazin-4-amine] | A (A = 1-25% inhibition) | < 0.15 |
| Cc1c(-c2ccn(C)n2)cn2nc(-c3nccn3C)nc(Nc3cc(OC(F)F)ccn3)c12 [Compound 128, N-(4-(Difluoromethoxy)pyridin-2-yl)-5-methyl-2-(1-methyl-1H-imidazol-2-yl)-6-(1-methyl-1H-pyrazol-3-yl)pyrrolo[2,1-f][1,2,4]triazin-4-amine] | A (A = 1-25% inhibition) | < 0.15 |
| Cc1c(-c2ccn(C)n2)cn2nc(-c3nccn3C)nc(Nc3cc(OCC(F)(F)F)ccn3)c12 [Compound 129, 5-Methyl-2-(1-methyl-1H-imidazol-2-yl)-6-(1-methyl-1H-pyrazol-3-yl)-N-(4-(2,2,2-trifluoroethoxy)pyridin-2-yl)pyrrolo[2,1-f][1,2,4]triazin-4-amine] | D* (D* = 76-100% activation) | < 0.15 |
| COCCO[C@H]1C[C@H](Nc2nc(-c3nccn3C)nn3cc(-c4ccn(C)n4)c(C)c23)C1 [Compound 130, N-((1r,3r)-3-(2-Methoxyethoxy)cyclobutyl)-5-methyl-2-(1-methyl-1H-imidazol-2-yl)-6-(1-methyl-1H-pyrazol-3-yl)pyrrolo[2,1-f][1,2,4]triazin-4-amine] | C (C = 46-75% inhibition) | > 1 |
| CO[C@H]1C[C@@H](Nc2nc(-c3nccn3C)nn3cc(-c4ccn(C)n4)c(C)c23)C1 [Compound 131, N-((1s,3s)-3-Methoxycyclobutyl)-5-methyl-2-(1-methyl-1H-imidazol-2-yl)-6-(1-methyl-1H-pyrazol-3-yl)pyrrolo[2,1-f][1,2,4]triazin-4-amine] | 0 (0 = 0% inhibition) | > 1 |
| Cc1c(-c2ccn(C3CC3)n2)cn2nc(-c3nccn3C)nc(O)c12 [Compound 134, 6-(1-Cyclopropyl-1H-pyrazol-3-yl)-5-methyl-2-(1-methyl-1H-imidazol-2-yl)pyrrolo[2,1-f][1,2,4]triazin-4-ol] | B (B = 26-45% inhibition) | > 1 |
| COc1cc(Nc2nc(-c3nccn3C)nn3cc(-c4ccn(C5CC5)n4)c(C)c23)ncn1 [Compound 135, 6-(1-Cyclopropyl-1H-pyrazol-3-yl)-N-(6-methoxypyrimidin-4-yl)-5-methyl-2-(1-methyl-1H-imidazol-2-yl)pyrrolo[2,1-f][1,2,4]triazin-4-amine] | A* (A* = 1-25% activation) | < 0.15 |
| Cc1c(-c2ccn(C)n2)cn2nc(-c3nccn3C)nc(Nc3cc(OC(C)C)ccn3)c12 [Compound 136, N-(4-Isopropoxypyridin-2-yl)-5-methyl-2-(1-methyl-1H-imidazol-2-yl)-6-(1-methyl-1H-pyrazol-3-yl)pyrrolo[2,1-f][1,2,4]triazin-4-amine] | A (A = 1-25% inhibition) | < 0.15 |
| COc1ccnc(Nc2nc(-c3nccn3C)nn3cc(-c4ccn(C5CC5)n4)c(C)c23)c1 [Compound 137, 6-(1-Cyclopropyl-1H-pyrazol-3-yl)-N-(4-methoxypyridin-2-yl)-5-methyl-2-(1-methyl-1H-imidazol-2-yl)pyrrolo[2,1-f][1,2,4]triazin-4-amine] | C (C = 46-75% inhibition) | < 0.15 |
